We go through 12 compounds from PubChem BioAssay (NCI).

Structures are written as SMILES.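 These data come from cells grown in 96-well plates and exposed to compound for 48 hours at five concentrations. GI50 = concentration required for 50% inhibition of growth. At the TGI there is no net growth.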

Among the test systems are 786-0 renal; HCT-116 colon; MALME-3M melanoma; NCI-H226 lung; NCI-H23 lung; NCI-H522 lung; RPMI-8226 leukemia; SF-539 CNS; UO-31 renal; TK-10 renal.
Experiment in all cases: NCI tumour cell line growth inhibition, 48 h

Regarding `O=c1[nH]cnc2c(C3OC(CO)C(O)C3O)[nH]nc12` (configuration not stated), the TGI in the assay with 786-0 renal was greater than 100 µM; with HCT-116 colon it was greater than 100 µM; in the assay on MALME-3M melanoma, greater than 100 µM; with NCI-H226 lung, greater than 100 µM; with NCI-H23 lung, greater than 100 µM; in the assay on NCI-H522 lung, 42.7 µM. Moreover, the TGI in the assay on RPMI-8226 leukemia, in the assay on SF-539 CNS and in the assay with UO-31 renal was greater than 100 µM each time.

On to `Cc1cc(C)c(C(=O)O)c(N)c1O`, for which the TGI in the assay with 786-0 renal, in the assay on HCT-116 colon, in the assay with MALME-3M melanoma, in the assay with NCI-H226 lung, with NCI-H23 lung and with NCI-H522 lung was greater than 100 µM throughout. Besides, the TGI in the assay with RPMI-8226 leukemia, with TK-10 renal and in the assay on UO-31 renal was greater than 100 µM throughout.

For `C/C(CC(=O)CCCC(=O)Nc1ccc(Cl)cc1Cl)=N/NC(=O)CC#N`, the TGI in the assay on 786-0 renal, with HCT-116 colon, in the assay with MALME-3M melanoma, in the assay with NCI-H226 lung, with NCI-H23 lung and in the assay on RPMI-8226 leukemia was greater than 100 µM each time. The TGI in the assay with SF-539 CNS, in the assay with TK-10 renal and in the assay with UO-31 renal was greater than 100 µM in each case.

Regarding `COc1cc2c(c(OC)c1OC)-c1ccc([O-])c(=O)cc1[C@@H](NC(C)=O)CC2.COc1cc2c(c(OC)c1OC)-c1ccc([O-])c(=O)cc1[C@@H](NC(C)=O)CC2.[Cu+2]`, the GI50 in the assay on 786-0 renal is 7.9 µM; in the assay with HCT-116 colon, 3.2 µM; in the assay with MALME-3M melanoma it was 15 µM; in the assay on NCI-H226 lung it was 5.13 µM; in the assay on NCI-H23 lung it was 3.73 µM; in the assay on RPMI-8226 leukemia, 3.17 µM. In addition, the GI50 with SF-539 CNS is 1.88 µM; with TK-10 renal, 9.55 µM; in the assay on UO-31 renal it was 4.1 µM. The TGI with 786-0 renal was greater than 100 µM; in the assay with HCT-116 colon it was greater than 100 µM; with MALME-3M melanoma it was greater than 100 µM; in the assay on NCI-H226 lung it was greater than 100 µM; in the assay on NCI-H23 lung, greater than 100 µM; with RPMI-8226 leukemia it was 38.2 µM. Besides, the figures for the TGI in the assay with SF-539 CNS, in the assay with TK-10 renal and in the assay on UO-31 renal were 4.53 µM, greater than 100 µM and 41.9 µM, respectively.

`COc1cc2[nH]c(C(=O)c3cc(OC)c(OC)c(OC)c3)c(N)c2cc1C#CCO`: the GI50 in the assay on 786-0 renal is 0.373 µM; in the assay on HCT-116 colon it was 0.298 µM; in the assay on MALME-3M melanoma, 0.143 µM; in the assay on NCI-H226 lung it was 0.752 µM; with NCI-H23 lung it was 0.508 µM; with RPMI-8226 leukemia, 1.64 µM. For the same compound, the GI50 was 0.138 µM with SF-539 CNS, 44.1 µM with TK-10 renal and 0.476 µM in the assay with UO-31 renal. The TGI in the assay on 786-0 renal was greater than 100 µM; in the assay with HCT-116 colon it was greater than 100 µM; with MALME-3M melanoma it was greater than 100 µM; in the assay with NCI-H226 lung, greater than 100 µM; in the assay with NCI-H23 lung it was greater than 100 µM; with RPMI-8226 leukemia, 83.6 µM. Besides, the TGI in the assay on SF-539 CNS is 0.491 µM; in the assay with TK-10 renal, greater than 100 µM; with UO-31 renal it was 59 µM.

As to `COc1ccc(NC(=O)C(=O)C(CC2C(=O)NC(=S)NC2=O)C(=O)c2ccc3ccccc3c2)c([N+](=O)[O-])c1` (configuration not stated), the TGI in the assay with 786-0 renal, in the assay with HCT-116 colon, with NCI-H226 lung, in the assay with NCI-H23 lung, in the assay with NCI-H522 lung and in the assay with RPMI-8226 leukemia was greater than 100 µM in each case. The TGI with SF-539 CNS, in the assay with TK-10 renal and with UO-31 renal was greater than 100 µM each time.

`COc1cc(C(=O)C/C(CCC(=O)Nc2ccccc2[N+](=O)[O-])=N\NC(=O)C(N)=O)ccc1O`: the TGI in the assay with 786-0 renal, in the assay on HCT-116 colon, with NCI-H226 lung, in the assay with NCI-H23 lung, with SF-539 CNS and in the assay with TK-10 renal was greater than 100 µM each time. In the assay on UO-31 renal, this compound gave a TGI greater than 100 µM.

Turning to `C=C(C)C1CC=C(C(=O)O)CC1` (configuration not stated), the TGI in the assay on 786-0 renal worked out at 4700 µM; in the assay with HCT-116 colon it was 1500 µM; in the assay with MALME-3M melanoma, 1630 µM; in the assay on NCI-H226 lung it was 2590 µM; in the assay on NCI-H23 lung, 2200 µM; with NCI-H522 lung, 1830 µM. Also, the TGI in the assay on SF-539 CNS is 2510 µM; in the assay with TK-10 renal it was greater than 5000 µM; with UO-31 renal, 4030 µM.

For the compound `CC[C@H](C)c1occ2c(O)c(C(=O)O)c(=O)cc-2c1C`, the TGI in the assay on 786-0 renal is greater than 100 µM; in the assay with HCT-116 colon, 41.5 µM; with MALME-3M melanoma, 37.7 µM; in the assay with NCI-H226 lung, greater than 100 µM; in the assay on NCI-H23 lung it was 43.1 µM; with NCI-H522 lung, 30.7 µM. The TGI in the assay with RPMI-8226 leukemia is 90.8 µM; in the assay on SF-539 CNS, 46.3 µM; in the assay with TK-10 renal, greater than 100 µM.

With `COc1ccc2cc(C(=O)c3ccccc3C(=O)O)ccc2c1`, the TGI in the assay with 786-0 renal, with HCT-116 colon, in the assay with MALME-3M melanoma, in the assay on NCI-H226 lung, in the assay on NCI-H23 lung and in the assay with NCI-H522 lung was greater than 100 µM each time. Moreover, the TGI in the assay with TK-10 renal and in the assay on UO-31 renal was greater than 100 µM throughout.

For `CON(C)C(=O)C(Cc1ccccc1)NC(=O)OC(C)(C)C` (configuration not stated), the TGI in the assay on 786-0 renal, in the assay on HCT-116 colon, in the assay on MALME-3M melanoma, in the assay on NCI-H226 lung, in the assay with NCI-H23 lung and in the assay on RPMI-8226 leukemia was greater than 100 µM in each case. The TGI in the assay on SF-539 CNS, in the assay on TK-10 renal and in the assay with UO-31 renal was greater than 100 µM in each case.

Turning to `CC[O-].CC[O-].[O-]c1ccccc1C=Nc1ccccc1.[O-]c1ccccc1C=Nc1ccccc1.[Ti+4]`, the GI50 with 786-0 renal is greater than 100 µM; with HCT-116 colon, 31.8 µM; with MALME-3M melanoma, greater than 100 µM; with NCI-H226 lung it was greater than 100 µM; with NCI-H23 lung, greater than 100 µM; in the assay on RPMI-8226 leukemia it was greater than 100 µM. Also, the GI50 in the assay on SF-539 CNS, with TK-10 renal and with UO-31 renal was greater than 100 µM in each case. Moreover, the TGI with 786-0 renal, in the assay with HCT-116 colon, with MALME-3M melanoma, in the assay with NCI-H226 lung, in the assay with NCI-H23 lung and in the assay with RPMI-8226 leukemia was greater than 100 µM in each case. The TGI in the assay with SF-539 CNS, in the assay on TK-10 renal and in the assay on UO-31 renal was greater than 100 µM in each case.
